Results on 45 molecules are retold here after US10111875B2, “Pyrrolopyrimidine compounds and uses thereof” (HUTCHISON MEDIPHARMA LIMITED, priority 2010, dated 2018).

The target in the assay is Recombinant human JAK1 catalytic domain (Homo sapiens (Human), UniProt P23458). Kind of assay: JAK1 kinase assay (Z'-LYTE Tyr 6 Peptide). Type of assay: biochemical. The settings on record: read-out: inhibition percentage (IR %). Here is the method:
JAK1/2/3 kinase assay are performed in vitro using Kit-Tyr 6 Peptide (Invitrogen, Cat. No. PV4122). TYK2 kinase assay are performed in vitro using Z′-LYTE™ Kinase Assay Kit-Tyr 3 Peptide (Invitrogen, Cat. No. PV3192). […] All compounds are initially tested at 8 different concentrations (1 μM down to 0.0003 μM) using a 1:3 serial dilution scheme.

Setting [1] is: JAK1 kinase assay, 0.3 uM concentration.

SMILES strings stand for the structures. Like-named read-outs stand apart in the source and are kept apart here.

The term inhibition denotes the relative decrease from the control value, in per cent.

Sequence of Recombinant human JAK1 catalytic domain (P23458 875-1153): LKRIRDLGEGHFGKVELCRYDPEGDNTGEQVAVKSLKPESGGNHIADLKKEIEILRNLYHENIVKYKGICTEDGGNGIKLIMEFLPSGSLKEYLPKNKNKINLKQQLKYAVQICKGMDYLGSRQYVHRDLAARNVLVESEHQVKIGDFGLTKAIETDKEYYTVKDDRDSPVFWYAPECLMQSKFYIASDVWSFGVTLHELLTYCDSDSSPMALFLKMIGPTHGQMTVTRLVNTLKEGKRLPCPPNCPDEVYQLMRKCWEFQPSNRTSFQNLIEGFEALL

As for `CN(c1ccc(C(=O)NC[C@H](O)c2ccccc2)cc1F)[C@@H]1CCN(c2ncnc3[nH]ccc23)C1` [Compound 202], under setting [1], the inhibition at 0.3 µM lay within 50 to 100%.

With `COc1nccc(N(C)[C@@H]2CCN(c3ncnc4[nH]ccc34)C2)n1` [Compound 141], the inhibition at 0.3 µM under setting [1] lay within 20 to 50%.

With `CN(c1ccc(S(=O)(=O)NC2CCC[C@@H]2O)cn1)[C@@H]1CCN(c2ncnc3[nH]ccc23)C1` (stereo partly drawn) [Compound 246], the inhibition at 0.3 µM under setting [1] fell in the range of 50 to 100%.

As to `C#CCN(c1c(F)cc(C#N)cc1F)[C@@H]1CCN(c2ncnc3[nH]ccc23)C1` [Compound 129], the inhibition at 0.3 µM under setting [1] was in the range of 50 to 100%.

Turning to `CCN(c1ccc(S(C)(=O)=O)cn1)[C@@H]1CCN(c2ncnc3[nH]ccc23)C1` [Compound 44], under setting [1], the inhibition at 0.3 µM is 20 to 50%.

For `CN([C@@H]1CCN(c2ncnc3[nH]ccc23)C1)S(=O)(=O)c1ccc([N+](=O)[O-])cc1` [Compound 11], the inhibition at 0.3 µM under setting [1] is 20 to 50%.

Regarding `CN(c1ncc([N+](=O)[O-])cc1Cl)[C@@H]1CCN(c2ncnc3[nH]ccc23)C1` [Compound 74], the inhibition at 0.3 µM under setting [1] lay in the range of 50 to 100%.

With `N#Cc1ccc(N(CC2CC2)[C@@H]2CCN(c3ncnc4[nH]ccc34)C2)nc1` [Compound 124], under setting [1], the inhibition at 0.3 µM was in the range of 50 to 100%.

On to `CN(c1ccc(C#N)c(O)n1)[C@@H]1CCN(c2ncnc3[nH]ccc23)C1` [Compound 260], for which, under setting [1], the inhibition at 0.3 µM lay in the range of 50 to 100%.

For the molecule `CN(C(=O)Nc1ccc(C#N)cc1)[C@@H]1CCN(c2ncnc3[nH]ccc23)C1` [Compound 17], the inhibition at 0.3 µM under setting [1] was in the range of 50 to 100%.

Turning to `CN(C(=O)Nc1cccc(C#N)c1)[C@@H]1CCN(c2ncnc3[nH]ccc23)C1` [Compound 16, (R)-1-(1-(7H-pyrrolo[2,3-d]pyrimidin-4-yl)pyrrolidin-3-yl)-3-(3-cyanophenyl)-1-methylurea], under setting [1], the inhibition at 0.3 µM lay within 50 to 100%.

Take `N#Cc1cnc(N[C@@H]2CCN(c3ncnc4[nH]ccc34)C2)c([N+](=O)[O-])c1` [Compound 97]: under setting [1], the inhibition at 0.3 µM was 50 to 100%.

Consider `CN(c1ccc(C#N)cc1-c1cccc(C#N)c1)[C@@H]1CCN(c2ncnc3[nH]ccc23)C1` [Compound 148], for which the inhibition at 0.3 µM under setting [1] fell in the range of 20 to 50%.

As for `CN(c1cccc(C#N)n1)[C@@H]1CCN(c2ncnc3[nH]ccc23)C1` [Compound 91], the inhibition at 0.3 µM under setting [1] is 50 to 100%.

Regarding `CN(c1cc(Cl)c(C#N)cc1F)[C@@H]1CCN(c2ncnc3[nH]ccc23)C1` [Compound 110], the inhibition at 0.3 µM lay in the range of 20 to 50%.

With `C[C@H](NC(=O)c1ccc(N(C)[C@@H]2CCN(c3ncnc4[nH]ccc34)C2)nc1)c1ccccc1` [Compound 188], the inhibition at 0.3 µM under setting [1] lay within 20 to 50%.

As for `C#Cc1ccc(N(C)[C@@H]2CCN(c3ncnc4[nH]ccc34)C2)nc1` [Compound 162, (R)—N-(1-(7H-pyrrolo[2,3-d]pyrimidin-4-yl)pyrrolidin-3-yl)-5-ethynyl-N-methylpyridin-2-amine], the inhibition at 0.3 µM was 50 to 100%.

Regarding `CN(C(=O)CC1CC1)[C@@H]1CCN(c2ncnc3[nH]ccc23)C1` [Compound 19], the inhibition at 0.3 µM under setting [1] was 20 to 50%.

As to `CN(c1ccc(Cl)nn1)[C@@H]1CCN(c2ncnc3[nH]ccc23)C1` [Compound 85], the inhibition at 0.3 µM under setting [1] is 50 to 100%.

With `C[C@H](NC(=O)c1ccc(N(C)[C@@H]2CCN(c3ncnc4[nH]ccc34)C2)c(F)c1)c1ccccc1` [Compound 182], the inhibition at 0.3 µM under setting [1] was 50 to 100%.

As to `CN(c1ccc(C#N)c2ccccc12)[C@@H]1CCN(c2ncnc3[nH]ccc23)C1` [Compound 111], the inhibition at 0.3 µM under setting [1] lay within 50 to 100%.

For the molecule `N#Cc1ccc(N[C@@H]2CCN(c3ncnc4[nH]ccc34)C2)nc1` [Compound 81], the inhibition at 0.3 µM under setting [1] lay within 50 to 100%.

Take `CC(C)[C@H](CO)NC(=O)c1ccc(N(C)[C@@H]2CCN(c3ncnc4[nH]ccc34)C2)c(F)c1` [Compound 180]: the inhibition at 0.3 µM under setting [1] fell in the range of 50 to 100%.

Consider `CCN(c1c(F)cc(C#N)cc1F)[C@@H]1CCN(c2ncnc3[nH]ccc23)C1` [Compound 132], for which the inhibition at 0.3 µM under setting [1] was in the range of 50 to 100%.

`CN(c1ccc(NC(=O)C2CC2)cn1)[C@@H]1CCN(c2ncnc3[nH]ccc23)C1` [Compound 229]: the inhibition at 0.3 µM under setting [1] is 50 to 100%.

Take `CN(c1ccc(C(=O)N[C@@H]2CCC[C@H]2O)cn1)[C@@H]1CCN(c2ncnc3[nH]ccc23)C1` [Compound 194]: the inhibition at 0.3 µM under setting [1] lay within 20 to 50%.

Take `CN(c1ccc(C(=O)NC2c3ccccc3CC2O)cc1F)[C@@H]1CCN(c2ncnc3[nH]ccc23)C1` (stereo partly drawn) [Compound 184]: under setting [1], the inhibition at 0.3 µM was in the range of 50 to 100%.

With `CN(c1ccc(S(=O)(=O)C(F)(F)F)cc1)[C@@H]1CCN(c2ncnc3[nH]ccc23)C1` [Compound 122], under setting [1], the inhibition at 0.3 µM was in the range of 50 to 100%.

Regarding `CN(c1c(F)c(F)c(C#N)c(F)c1F)[C@@H]1CCN(c2ncnc3[nH]ccc23)C1` [Compound 117], the inhibition at 0.3 µM under setting [1] lay in the range of 50 to 100%.

On to `C[C@H](NS(=O)(=O)c1ccc(N(C)[C@@H]2CCN(c3ncnc4[nH]ccc34)C2)nc1)c1ccc(F)cc1` [Compound 256], for which, under setting [1], the inhibition at 0.3 µM is 50 to 100%.

Consider `CN(C(=O)c1ccc(N(C)[C@@H]2CCN(c3ncnc4[nH]ccc34)C2)nc1)c1ccc(F)cc1` [Compound 178], for which the inhibition at 0.3 µM under setting [1] is 50 to 100%.

Turning to `CN(c1ccc(S(=O)(=O)Nc2ccn(C)n2)cn1)[C@@H]1CCN(c2ncnc3[nH]ccc23)C1` [Compound 250], the inhibition at 0.3 µM under setting [1] was in the range of 20 to 50%.

As for `CN([C@@H]1CCN(c2ncnc3[nH]ccc23)C1)S(=O)(=O)C1CCCCC1` [Compound 28], the inhibition at 0.3 µM under setting [1] was 50 to 100%.

As for `CN(c1ccc(C(=O)NCc2ccccc2)cn1)[C@@H]1CCN(c2ncnc3[nH]ccc23)C1` [Compound 172], the inhibition at 0.3 µM under setting [1] lay in the range of 20 to 50%.

Take `CN(c1ccc2[nH]c(=O)[nH]c2n1)[C@@H]1CCN(c2ncnc3[nH]ccc23)C1` [Compound 164, (R)-5-((1-(7H-pyrrolo[2,3-d]pyrimidin-4-yl)pyrrolidin-3-yl)(methyl)amino)-1H-imidazo[4,5-b]pyridin-2(3H)-one]: the inhibition at 0.3 µM under setting [1] was 50 to 100%.

`CN(c1ccc(C#N)cn1)[C@@H]1CCN(c2ccnc3[nH]ccc23)C1` [Compound 92]: the inhibition at 0.3 µM under setting [1] lay in the range of 50 to 100%.

On to `CN(c1ccc(C#N)c(C#N)c1)[C@@H]1CCN(c2ncnc3[nH]ccc23)C1` [Compound 113], for which, under setting [1], the inhibition at 0.3 µM fell in the range of 20 to 50%.

As to `CN(c1ccc(C(F)(F)F)nn1)[C@@H]1CCN(c2ncnc3[nH]ccc23)C1` [Compound 62], under setting [1], the inhibition at 0.3 µM fell in the range of 50 to 100%.

On to `CN(c1ccc(-c2cn[nH]c2)cn1)[C@@H]1CCN(c2ncnc3[nH]ccc23)C1` [Compound 150], for which the inhibition at 0.3 µM under setting [1] is 50 to 100%.

Regarding `CN(c1ccc(-c2nn[nH]n2)cc1F)[C@@H]1CCN(c2ncnc3[nH]ccc23)C1` [Compound 161], the inhibition at 0.3 µM under setting [1] was 50 to 100%.

Take `CN(c1ccc(S(=O)(=O)NCc2ccc(F)cc2)cn1)[C@@H]1CCN(c2ncnc3[nH]ccc23)C1` [Compound 254]: the inhibition at 0.3 µM under setting [1] lay within 50 to 100%.

For `CN(c1ccc(C(=O)N[C@@H](CO)c2ccccc2)cc1Cl)[C@@H]1CCN(c2ncnc3[nH]ccc23)C1` [Compound 205], the inhibition at 0.3 µM under setting [1] lay in the range of 50 to 100%.

`CN(c1ccc(C(=O)NCc2ccccc2)cc1F)[C@@H]1CCN(c2ncnc3[nH]ccc23)C1` [Compound 187]: under setting [1], the inhibition at 0.3 µM was in the range of 50 to 100%.

On to `C#CCN(C1CCOC1)[C@@H]1CCN(c2ncnc3[nH]ccc23)C1` (stereo partly drawn) [Compound 56], for which, under setting [1], the inhibition at 0.3 µM is 50 to 100%.

Turning to `C#CCN(c1ccc(C#N)cc1)[C@@H]1CCN(c2ncnc3[nH]ccc23)C1` [Compound 131], under setting [1], the inhibition at 0.3 µM lay within 50 to 100%.
